# Source: article PMC9090415, “Discovery of small molecule inhibitors of Plasmodium falciparum apicoplast DNA polymerase” (Journal of Enzyme Inhibition and Medicinal Chemistry, 2022)
# pIC50: −log10 of the molar value.
# Target: P. falciparum apicoplast DNA polymerase (Pf-apPOL) (Plasmodium falciparum, UniProt Q8ILY1)
# Test: Fluorescence-based high-throughput DNA polymerase assay (molecular beacon), primary screen and dose-response
# Assay type: biochemical
# Settings: for DNA Pol: 90 min, 10 µM
# Procedure, shortened: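 Single-point screening used 10 µM compound with 20 nM polymerase, 20 nM hairpin substrate and 6 µM dNTPs for 90 min at 25 °C. Confirmatory titrations (2.5–80 µM) followed fluorescence at three times, and IC50 was derived from a fit including a cooperativity term n.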
# [1] = 'DNA Pol', screening value, unit not given
# [2] = primary screen hit value, DNA Pol (186 hits)
# Chain of P. falciparum apicoplast DNA polymerase (Pf-apPOL) (Q8ILY1 entry or part of it): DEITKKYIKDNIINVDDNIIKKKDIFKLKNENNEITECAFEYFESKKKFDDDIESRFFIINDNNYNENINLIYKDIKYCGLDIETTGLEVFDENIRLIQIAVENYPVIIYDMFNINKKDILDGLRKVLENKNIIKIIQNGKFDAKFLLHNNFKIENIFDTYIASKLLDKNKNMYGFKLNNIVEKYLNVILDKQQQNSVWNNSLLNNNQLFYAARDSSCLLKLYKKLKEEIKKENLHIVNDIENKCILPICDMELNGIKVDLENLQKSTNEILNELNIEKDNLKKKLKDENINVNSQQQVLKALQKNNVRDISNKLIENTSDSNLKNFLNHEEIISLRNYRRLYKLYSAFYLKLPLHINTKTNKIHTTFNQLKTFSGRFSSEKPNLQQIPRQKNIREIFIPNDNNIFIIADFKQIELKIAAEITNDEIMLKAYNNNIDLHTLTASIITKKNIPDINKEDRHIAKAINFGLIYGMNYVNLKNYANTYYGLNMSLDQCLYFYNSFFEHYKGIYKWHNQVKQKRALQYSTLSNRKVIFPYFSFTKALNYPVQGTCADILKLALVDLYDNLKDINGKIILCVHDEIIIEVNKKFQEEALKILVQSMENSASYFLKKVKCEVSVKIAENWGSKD
smiles,measurement,setting,value
"CN1CC(=Cc2ccco2)C(=O)C(=Cc2ccco2)C1 [Molecule 65, CN1CC(=Cc2ccco2)C(=O)C(=Cc2ccco2)C1]",DNA Pol,[1],69
same,% inhibition Apo pol 10',"DRC-1, concentration 2.5",22.1284%
same,% inhibition Apo pol 10',"DRC-1, concentration 5",42.6789%
same,% inhibition Apo pol 10',"DRC-1, concentration 10",54.6654%
same,% inhibition Apo pol 10',"DRC-1, concentration 20",60.4298%
same,% inhibition Apo pol 10',"DRC-1, concentration 40",67.6613%
same,% inhibition Apo pol 10',"DRC-1, concentration 80",69.4432%
same,% inhibition Apol 90',"DRC-1, 90', concentration 2.5",10.4669%
same,% inhibition Apol 90',"DRC-1, 90', concentration 5",22.0675%
same,% inhibition Apol 90',"DRC-1, 90', concentration 10",32.2145%
same,% inhibition Apol 90',"DRC-1, 90', concentration 20",39.744%
same,% inhibition Apol 90',"DRC-1, 90', concentration 40",50.5992%
same,% inhibition Apol 90',"DRC-1, 90', concentration 80",58.0625%
same,% inhibition apPOL 180',"DRC-1, 180', concentration 2.5",4.595%
same,% inhibition apPOL 180',"DRC-1, 180', concentration 5",8.893%
same,% inhibition apPOL 180',"DRC-1, 180', concentration 10",17.702%
same,% inhibition apPOL 180',"DRC-1, 180', concentration 20",24.3352%
same,% inhibition apPOL 180',"DRC-1, 180', concentration 40",38.0441%
same,% inhibition apPOL 180',"DRC-1, 180', concentration 80",50.1748%
same,% inhibition Apo pol 5',"DRC-2, 5', concentration 2.5",27%
same,% inhibition Apo pol 5',"DRC-2, 5', concentration 5",34%
same,% inhibition Apo pol 5',"DRC-2, 5', concentration 10",42%
same,% inhibition Apo pol 5',"DRC-2, 5', concentration 20",45%
same,% inhibition Apo pol 5',"DRC-2, 5', concentration 40",49%
same,% inhibition Apo pol 5',"DRC-2, 5', concentration 80",47%
same,% inhibition Apol 40',"DRC-2, 40', concentration 2.5",21%
same,% inhibition Apol 40',"DRC-2, 40', concentration 5",27%
same,% inhibition Apol 40',"DRC-2, 40', concentration 10",37%
same,% inhibition Apol 40',"DRC-2, 40', concentration 20",43%
same,% inhibition Apol 40',"DRC-2, 40', concentration 40",52%
same,% inhibition Apol 40',"DRC-2, 40', concentration 80",55%
same,% inhibition ApPOL 90',"DRC-2, 90', concentration 2.5",17%
same,% inhibition ApPOL 90',"DRC-2, 90', concentration 5",21%
same,% inhibition ApPOL 90',"DRC-2, 90', concentration 10",32%
same,% inhibition ApPOL 90',"DRC-2, 90', concentration 20",38%
same,% inhibition ApPOL 90',"DRC-2, 90', concentration 40",50%
same,% inhibition ApPOL 90',"DRC-2, 90', concentration 80",56%
same,% inhibition apPOL 180',"DRC-2, 180', concentration 2.5",8%
same,% inhibition apPOL 180',"DRC-2, 180', concentration 5",8%
same,% inhibition apPOL 180',"DRC-2, 180', concentration 10",20%
same,% inhibition apPOL 180',"DRC-2, 180', concentration 20",28%
same,% inhibition apPOL 180',"DRC-2, 180', concentration 40",42%
same,% inhibition apPOL 180',"DRC-2, 180', concentration 80",54%
same,% inhibition Apo pol 5',"conc 2.5 (unit not given), 5', DRC-2",27%
same,% inhibition Apol 40',"conc 2.5 (unit not given), 40', DRC-2",21%
same,% inhibition apPOL 180',"conc 2.5 (unit not given), 180', DRC-2",8%
same,% inhibition Apol 40',"conc 5 (unit not given), 40', DRC-2",27%
same,% inhibition ApPOL 90',"conc 5 (unit not given), 90', DRC-2",21%
same,% inhibition apPOL 180',"conc 5 (unit not given), 180', DRC-2",8%
same,% inhibition Apo pol 5',"conc 10 (unit not given), 5', DRC-2",42%
same,% inhibition apPOL 180',"conc 40 (unit not given), 180', DRC-2",42%
same,DNA Pol,[2],69
"CCSc1nnc(NC(=O)Cc2csc(NC(=O)c3cnccn3)n2)s1 [Molecule 79, CCSc1nnc(s1)NC(=O)Cc1csc(n1)NC(=O)c1cnccn1]",DNA Pol,[1],44
same,% inhibition Apo pol 10',"DRC-1, concentration 2.5",-4.905%
same,% inhibition Apo pol 10',"DRC-1, concentration 5",-2.236%
same,% inhibition Apo pol 10',"DRC-1, concentration 10",11.7558%
same,% inhibition Apo pol 10',"DRC-1, concentration 20",21.8429%
same,% inhibition Apo pol 10',"DRC-1, concentration 40",42.6087%
same,% inhibition Apo pol 10',"DRC-1, concentration 80",77.5256%
same,% inhibition Apol 90',"DRC-1, 90', concentration 2.5",-9.3965%
same,% inhibition Apol 90',"DRC-1, 90', concentration 5",-9.701%
same,% inhibition Apol 90',"DRC-1, 90', concentration 10",-1.729%
same,% inhibition Apol 90',"DRC-1, 90', concentration 20",6.401%
same,% inhibition Apol 90',"DRC-1, 90', concentration 40",23.3518%
same,% inhibition Apol 90',"DRC-1, 90', concentration 80",61.199%
same,% inhibition apPOL 180',"DRC-1, 180', concentration 2.5",-15.2579%
same,% inhibition apPOL 180',"DRC-1, 180', concentration 5",-16.9778%
same,% inhibition apPOL 180',"DRC-1, 180', concentration 10",-10.4775%
same,% inhibition apPOL 180',"DRC-1, 180', concentration 20",-5.476%
same,% inhibition apPOL 180',"DRC-1, 180', concentration 40",8.736%
same,% inhibition apPOL 180',"DRC-1, 180', concentration 80",42.542%
same,% inhibition Apo pol 5',"DRC-2, 5', concentration 2.5",1.36%
same,% inhibition Apo pol 5',"DRC-2, 5', concentration 5",13%
same,% inhibition Apo pol 5',"DRC-2, 5', concentration 10",30%
same,% inhibition Apo pol 5',"DRC-2, 5', concentration 20",43%
same,% inhibition Apo pol 5',"DRC-2, 5', concentration 40",55%
same,% inhibition Apo pol 5',"DRC-2, 5', concentration 80",62%
same,% inhibition Apol 40',"DRC-2, 40', concentration 2.5",-2.42%
same,% inhibition Apol 40',"DRC-2, 40', concentration 5",7%
same,% inhibition Apol 40',"DRC-2, 40', concentration 10",25%
same,% inhibition Apol 40',"DRC-2, 40', concentration 20",40%
same,% inhibition Apol 40',"DRC-2, 40', concentration 40",62%
same,% inhibition Apol 40',"DRC-2, 40', concentration 80",76%
same,% inhibition ApPOL 90',"DRC-2, 90', concentration 2.5",-4.46%
same,% inhibition ApPOL 90',"DRC-2, 90', concentration 5",5%
same,% inhibition ApPOL 90',"DRC-2, 90', concentration 10",22%
same,% inhibition ApPOL 90',"DRC-2, 90', concentration 20",35%
same,% inhibition ApPOL 90',"DRC-2, 90', concentration 40",62%
same,% inhibition ApPOL 90',"DRC-2, 90', concentration 80",79%
same,% inhibition apPOL 180',"DRC-2, 180', concentration 2.5",-6%
same,% inhibition apPOL 180',"DRC-2, 180', concentration 5",1.68%
same,% inhibition apPOL 180',"DRC-2, 180', concentration 10",14%
same,% inhibition apPOL 180',"DRC-2, 180', concentration 20",26%
same,% inhibition apPOL 180',"DRC-2, 180', concentration 40",59%
same,% inhibition apPOL 180',"DRC-2, 180', concentration 80",81%
same,% inhibition Apol 40',"conc 40 (unit not given), 40', DRC-2",62%
same,% inhibition ApPOL 90',"conc 40 (unit not given), 90', DRC-2",62%
same,% inhibition Apo pol 5',"conc 80 (unit not given), 5', DRC-2",62%
same,DNA Pol,[2],44
COc1ccc(C)cc1NC(=O)Cn1ccc2c(=O)[nH]ccc21 [Molecule 15],pIC50,"supplemental file 2, sheet IC50 nontoxic compounds, Pf-apPOL",5.14
